Assay results: EP2926812A1, “USE OF ARTEMETHER IN PREPARATION OF DRUG FOR TREATING LEUKEMIA” (Kunming Pharmaceutical Corp., priority 2012, dated 2014)

System: K562 nude mice transplanted tumor
Test: Inhibition of growth of K562 nude mice transplanted tumor (pre-trial, experiment 1, experiment 2)
Format: in vivo, Balb/c nude mice
Conditions: cyclophosphamide 10 ml/kg intraperitoneal; for tumor sizes: n=6; for inhibition ratio: of tumor mass
Description: 2.4 K562 cell: primary K562 cell is derived from bone marrow of a patient having leukemia, introduced by Blood Research Institute from abroad, stored and passaged in Pathologic Cell Bank; cultured in RPMI1640 medium (comprising 10% fetal bovine serum).
2.6 experimental animal: Balb/c nude mice, 4~5 weeks old, weight: 17~20 g, gender: half male and half female. Experimental Animal Institute of the Chinese Academy of Medical Sciences, certification number of experimental animals: SCXK (JING) 2005-0013.
3.1.1 Balb/c nude mice were subjected to 3.0Gy whole-body irradiation, after subcutaneous inoculation of primary K562 cells. About 4 weeks after inoculation, tumor masses in growing were removed and transplanted into […], and this process was repeated for 2~3 passages to establish high oncogenic K562 cell line.
3.1.2 Nude mice were subjected to 3.0Gy whole-body irradiation, after subcutaneous inoculation of the K562 cells. One week after inoculation, nude mice with visible tumors were divided into the following 4 groups each consisting of 6 animals. The following dosages were administered for 3 continuous weeks, with 7 doses per week, a total of 21 doses.
Model control group: intraperitoneal injection of 20% aqueous solution of excipient at 0.2 ml/animal.
High dosage group: intraperitoneal injection of artemether at 150 ml/kg.
Middle dosage group: intraperitoneal injection of artemether at 100 ml/kg.
Low dosage group: intraperitoneal injection of artemether at 50 ml/kg.
Nude mice were subjected to a 3.0Gy whole-body irradiation, after subcutaneous inoculation of the K562 cells. One week after inoculation, nude mice with visible tumors were divided into the following 5 groups each consisting of 6 animals. The following dosages were administered for 3 continuous weeks, with 5 doses per week, a total of 15 doses.
Positive control group: intraperitoneal injection of cyclophosphamide at 10 ml/kg.
High dosage group: intraperitoneal injection of artemether at 100 ml/kg.
Middle dosage group: intraperitoneal injection of artemether at 60 ml/kg.
Low dosage group: intraperitoneal injection of artemether at 40 ml/kg.
Nude mice were subjected to a 3.0Gy whole-body irradiation, after subcutaneous inoculation of the K562 cells. One week after inoculation, nude mice with visible tumors were divided into the following 5 groups each consisting of 6 nude mice.
Model control group: intraperitoneal injection of 20% solution of excipient at 0.2ml/animal. The dosage was administered for 3 weeks, with 7 doses per week, a total of 21 doses.
Positive control group: intraperitoneal injection of cyclophosphamide at 10 ml/kg. The dosage was administered for 3 weeks, with 7 doses per week, a total of 21 doses.
High dosage group: intraperitoneal injection of artemether at 100 ml/kg. The dosage was administered for 3 weeks, with 5 doses per week, a total of 15 doses.
Middle dosage group: intraperitoneal injection of artemether at 60 ml/kg. The dosage was administered for 3 weeks, with 7 doses per week, a total of 21 doses.
Low dosage group: intraperitoneal injection of artemether at 40 ml/kg. The dosage was administered for 3 weeks, with 7 doses per week, a total of 21 doses.

[1] = experiment 1, 15 doses, 4 weeks after inoculation
[2] = experiment 2, 21 doses, 4 weeks after inoculation

O=P1(N(CCCl)CCCl)NCCCO1 (stereo not drawn) [Cyclophosphamide, cyclophosphamide]
tumor sizes (experiment 1, 15 doses in 3 weeks, 1 week after inoculation): 48.1±10.9 mm3
tumor sizes (experiment 1, 15 doses in 3 weeks, 2 weeks after inoculation): 104.9±60.3 mm3
tumor sizes (experiment 1, 15 doses in 3 weeks, 3 weeks after inoculation): 373.7±319.9 mm3
tumor sizes (experiment 1, 15 doses in 3 weeks, 4 weeks after inoculation): 799.0±571.3 mm3
tumor mass [1]: 651.7 ± 544.3 mg
tumor sizes (experiment 2, 21 doses in 3 weeks, 1 week after inoculation): 30.7±10.9 mm3
tumor sizes (experiment 2, 21 doses in 3 weeks, 2 weeks after inoculation): 77.3±49.8 mm3
tumor sizes (experiment 2, 21 doses in 3 weeks, 3 weeks after inoculation): 203.1 ±94.7 mm3
tumor sizes (experiment 2, 21 doses in 3 weeks, 4 weeks after inoculation): 327.0±206.8 mm3
tumor mass [2]: 241.7 ± 176.8 mg
inhibition ratio [1]: 39.2%
inhibition ratio [2]: 83.3%
